# Source: patent publication US20070166547A1, “Use of a layer consisting of hydrophobic linear, or two-dimensional polycyclic aromatics as a barrier layer or an encapsulation and electric components constructed with a layer of this type and comprising organic polymers” (priority 2003, published 2007)
# Read-outs that look alike come from different tables or passages of the source.
# How the values were obtained:
# [1] = Chronic toxicity, rectal suppositories: indexes of peripheral blood; details: male rats; for Basophiles / Juveniles: 1 month/2 months (one value given)
# Method: (§1) The experiments were conducted on inbred rats. The experimental animals were selected in groups by a method of random sampling taking into account the body mass as a determining index; 24 males or 24 females for one preparation from compounds 2, 15, 23, 34, 37 investigated in one dose.
# (§2) Two doses of preparations used in the experiments: 50 mg/kg and 500 mg/kg. Before the administration, the suppositories were softened by heating in a glass water bath at a temperature of 38-39° C., the soft mass was collected in tuberculin syringe in a volume of 1 ml, a needle with oliva was attached to the syringe, and the preparatory mass was introduced into the rectum of the animal for a depth of 1.5-2.0 cm. The animals of the control group were administered with sterile medical liquid paraffin in a volume corresponding to the volume of the investigated suppository. A complete course of administration of drugs to the animals was two months. A complex of laboratory diagnostic investigations was carried out one month after the beginning of the administration of the preparation to the animal—in a middle of the course (8 animals), two months after ending the course (8 animals) and three months after ending the recovery period of one month (8 animals). The mass of the body of the rats in the first month of administration of the preparation was determined weekly, and then once in two weeks. On the basis of the dynamics of an index of the mass of the animal body, the volume of preparation being administered was corrected taking into account the test dose.
# [2] = system: embyronic fibroblasts of mouse NIH-3T3; assay: Endocellular pHi of fibroblasts by microspectrofluorimetry (FDA, BCECF-AM); assay type: cell-based; details: for rise of pHi: fibroblasts in an attached spread state; for increase of pHi: 20 minutes
# Method: The effect of the compounds according to the invention on the endocellular pH, embyronic fibroblasts of mouse NIH-3T3 supplied by the All-Russian Collection of Cellular Cultures of the Institute of Cytology of the Russian Academy of Sciences St. Petersburg was investigated. The cells were grown in the DMEM (Sigma) medium containing 2.2 g/l of sodium bicarbonate with addition of 80.0 mkg/ml of gentamicin and 10.0% embryonal veal serum at a temperature of 37° C. in an atmosphere containing 5.0% of carbon dioxide. For these experiments use was also made of a medium buffer with 5.0 mM of HEPES and 15.0 mM of sodium bicarbonate without serum or with addition of 5.0% serum. The cells were calculated with the help of a hemocytometer. A share of the dead cells was determined by colouring trypan blue.
# The measurements of the endocellular pHi were carried out with the help of colorants FDA (Sigma) and BCECF-AM (Calbiochem) on a microspectrofluorimeter by a standard technique (Koshevoy Yu. V., Akatov V. S., Grobova M. E. Microspectrofluorimeter for measuring endocellular pH (micro pH)”. Devices and equipment for studies in the field of physical-and-chemical biology and biotechnology. Pushchino, 1990. P. 8-14).
# The cells at a temperature of 37° C. were colored within 5 minutes with 5.0 mkM PDA that before the colouring was prepared from a 10.0 mM solution in acetone by dilution for 30 minutes in a phosphatic buffer to 0.1 mM or 2.0 mkM 1.0 mM solution BCECF-AM in DMSO.
# The two-wave method of determining pHi was used based on the ratio intensities of fluorescence of the cells on two wavelengths (Akatov V. S. et all), “Endocellular pH and substrate dependence of proliferation of fibroblasts of Chinese hamster, Cytology, 1991, 33 (7), p. 86-94). The fluorescence was excited by light at λ=490 nm, the emission was recorded simultaneously with two photomultipliers on wavelengths λ=535 nm and λ=570 nm. The K-ratio of the fluorescence on two wavelengths was determined with a deduction of the background fluorescence of the medium near the investigated cells for 40-60 individual cells, which are then averaged taking into account the measurement error. A thermostatically controlled table was used that allowed measurements to be conducted at a temperature of 37° C. An account was taken for the photodynamic damage of the pigmented cells during-long-time continuous illumination by excited light. The readings were taken from a section of the preparation exposed to light for not more than 5 minutes.
# The calibration curves for determining the absolute pHi values by magnitude K were constructed using the Thomas technique (Thomas J. A., Bushbaum R. N., Zimniak A. w Racker E. “Intracellular pH measurements in Ehrlich ascites tumor cells utilizing spectroscopic probe generated in situ”, Biochemistry, 1979, v. 18, p. 2210-2218), for which case the pigmented cells treated for 5-10 minutes with carboxyacidic nigericyn (Calbiochem) at a concentration of 5-10 mkg/ml was placed in a solution with a high content of potassium—130 mM KCl, 1.0 mM MgCl2, 20.0 mM of HEPES) and with pH values from 6.2 to 7.6. The K values were measured in the media with different pH assuming that pHi of the cells equals to the pH of the medium due to the action of nigericyn, which exchanges potassium ions for protons and at a high content of potassium in the medium counterbalances the pH of the medium and cells. Calibration curves were used based on the fluorescence of same medium with addition of 5.0 mkM of fluorescence or BCECF were used to the control the stability of the of the instrument readings.
# The correctness of the technique was confirmed in the experiments on measurements of pH values of cells treated with protonofor monencine raising pH of the cells due to replacement of sodium ions by protons, and by determining the dependence of the change of pHi on the change of the pH of the medium. […]
# [3] = rat, in vivo
# Method: as §1, §2
# [4] = suppositories 50 mg/kg, 1 month
# [5] = suppositories 50 mg/kg, 2 months
# [6] = suppositories 500 mg/kg, 1 month
# [7] = suppositories 500 mg/kg, 2 months
# [8] = medium with 10.0% blood serum, 0.02 mkg/ml, suspension
# [9] = medium with 10.0% blood serum, 0.2 mkg/ml, suspension
# [10] = medium with 10.0% blood serum, 2.0 mkg/ml, suspension
# [11] = medium with 10.0% blood serum, 20.0 mkg/ml, suspension
# [12] = medium without blood serum, 0.02 mkg/ml
# [13] = medium without blood serum, 0.2 mkg/ml
# [14] = medium without blood serum, 2.0 mkg/ml
# [15] = medium without blood serum, 20.0 mkg/ml
# [16] = medium without blood serum, 200 mkg/ml
# [17] = medium without blood serum, 1000 mkg/ml
compound,measurement,setting,value
"Nc1ccnc2c(=O)n([C@@H]3O[C@H](CO)[C@@H](O)[C@H]3O)[nH]c(=O)c12 [Compound 2, 4-amino-7-(β-D-ribofuranosile)pyrido[2,3-d]-6H-pyridazine-5,8-dione]",Average volume of erythrocytes,[1]; [4],83.4 ± 1.4 Mkm^3
same,"Coagulation, time",[1]; [4],145 ± 16 s
same,Eosinophiles,[1]; [4],3.4 ± 0.6%
same,Erythrocytes,[1]; [4],5.60 ± 2 mln/mm^3
same,Haematocrite,[1]; [4],47.8 ± 1.3%
same,Hemoglobin,[1]; [4],10.5 ± 0.1 mmol/L
same,Leukocyte,[1]; [4],16.0 ± 1.4 thousand/mm^3
same,REE,[1]; [4],1.9 ± 0.3 mm/h
same,Reticulocytes,[1]; [4],2.8 ± 0.2/2.8 ± 0.2%
same,Stab neutrophil,[1]; [4],0.8 ± 0.3%
same,Thrombocytes,[1]; [4],659 ± 26
same,Basophiles,[1]; suppositories 50 mg/kg,0%
same,Juveniles,[1]; suppositories 50 mg/kg,0%
same,Average volume of erythrocytes,[1]; [5],77.9 ± 2.1 Mkm^3
same,"Coagulation, time",[1]; [5],322 ± 18 s
same,Eosinophiles,[1]; [5],4.2 ± 0.8%
same,Erythrocytes,[1]; [5],6.1 ± 0.1 mln/mm^3
same,Haematocrite,[1]; [5],47.9 ± 1.5%
same,Hemoglobin,[1]; [5],11.1 ± 0.1 mmol/L
same,Leukocyte,[1]; [5],19.3 ± 1.6 thousand/mm^3
same,REE,[1]; [5],1.7 ± 0.1 mm/h
same,Reticulocytes,[1]; [5],2.8 ± 0.2/2.8 ± 0.2%
same,Stab neutrophil,[1]; [5],1.7 ± 0.3%
same,Thrombocytes,[1]; [5],566 ± 20
same,Average volume of erythrocytes,[1]; [6],85.2 ± 1.2 Mkm^3
same,"Coagulation, time",[1]; [6],149 ± 11 s
same,Eosinophiles,[1]; [6],3.2 ± 0.9%
same,Erythrocytes,[1]; [6],5.6 ± 0.1 mln/mm^3
same,Haematocrite,[1]; [6],47.5 ± 1.6%
same,Hemoglobin,[1]; [6],10.6 ± 0.1 mmol/L
same,Leukocyte,[1]; [6],15.6 ± 0.8 thousand/mm^3
same,REE,[1]; [6],2.1 ± 0.3 mm/h
same,Reticulocytes,[1]; [6],2.9 ± 0.3%
same,Stab neutrophil,[1]; [6],0.9 ± 0.2%
same,Thrombocytes,[1]; [6],681 ± 26
same,Basophiles,[1]; suppositories 500 mg/kg,0%
same,Juveniles,[1]; suppositories 500 mg/kg,0%
same,Average volume of erythrocytes,[1]; [7],72.0 ± 2.5 Mkm^3
same,"Coagulation, time",[1]; [7],305 ± 13 s
same,Eosinophiles,[1]; [7],4.8 ± 1.6%
same,Erythrocytes,[1]; [7],6.5 ± 0.1 mln/mm^3
same,Haematocrite,[1]; [7],50.3 ± 2.0%
same,Hemoglobin,[1]; [7],12.3 ± 0.3 mmol/L
same,Leukocyte,[1]; [7],18.6 ± 1.9 thousand/mm^3
same,REE,[1]; [7],1.9 ± 0.1 mm/h
same,Reticulocytes,[1]; [7],3.5 ± 0.2%
same,Stab neutrophil,[1]; [7],1.1 ± 0.3%
same,Thrombocytes,[1]; [7],583 ± 25
"O=c1[nH]n([C@@H]2O[C@H](CO)[C@@H](O)[C@H]2O)c(=O)c2nc(O)cnc12.[Na].[Na] [Compound 23, disodium salt of 2-hydroxy-7-(β-D-ribofuranosile)pyrazine[2,3-Cl]-6H-pyridazine-5,8-dione]",Average volume of erythrocytes,[1]; [4],82.7 ± 1.6 Mkm^3
same,"Coagulation, time",[1]; [4],150 ± 15 s
same,Eosinophiles,[1]; [4],3.6 ± 0.5%
same,Erythrocytes,[1]; [4],5.7 ± 0.1 mln/mm^3
same,Haematocrite,[1]; [4],47.7 ± 1.2%
same,Hemoglobin,[1]; [4],10.7 ± 0.1 mmol/L
same,Leukocyte,[1]; [4],15.5 ± 1.1 thousand/mm^3
same,REE,[1]; [4],1.7 ± 0.8 mm/h
same,Reticulocytes,[1]; [4],2.7 ± 0.3%
same,Stab neutrophil,[1]; [4],1.1 ± 0.5%
same,Thrombocytes,[1]; [4],659 ± 18
same,Basophiles,[1]; suppositories 50 mg/kg,0%
same,Juveniles,[1]; suppositories 50 mg/kg,0%
same,Average volume of erythrocytes,[1]; [5],77.5 ± 1.7 Mkm^3
same,"Coagulation, time",[1]; [5],313 ± 17 s
same,Eosinophiles,[1]; [5],4.0 ± 0.7%
same,Erythrocytes,[1]; [5],6.0 ± 0.2 mln/mm^3
same,Haematocrite,[1]; [5],46.5 ± 1.3%
same,Hemoglobin,[1]; [5],11.0 ± 0.1 mmol/L
same,Leukocyte,[1]; [5],17.6 ± 1.2 thousand/mm^3
same,REE,[1]; [5],1.5 ± 0.1 mm/h
same,Reticulocytes,[1]; [5],2.8 ± 0.1%
same,Stab neutrophil,[1]; [5],1.6 ± 0.2%
same,Thrombocytes,[1]; [5],586 ± 28
same,Average volume of erythrocytes,[1]; [6],83.5 ± 1.7 Mkm^3
same,"Coagulation, time",[1]; [6],156 ± 11 s
same,Eosinophiles,[1]; [6],3.3 ± 0.7%
same,Erythrocytes,[1]; [6],5.7 ± 0.2 mln/mm^3
same,Haematocrite,[1]; [6],47.9 ± 1.1%
same,Hemoglobin,[1]; [6],10.7 ± 0.2 mmol/L
same,Leukocyte,[1]; [6],16.4 ± 1.1 thousand/mm^3
same,REE,[1]; [6],2.0 ± 0.3 mm/h
same,Reticulocytes,[1]; [6],3.1 ± 0.1%
same,Stab neutrophil,[1]; [6],1.0 ± 0.3%
same,Thrombocytes,[1]; [6],678 ± 18
same,Basophiles,[1]; suppositories 500 mg/kg,0%
same,Juveniles,[1]; suppositories 500 mg/kg,0%
same,Average volume of erythrocytes,[1]; [7],82.1 ± 1.4 Mkm^3
same,"Coagulation, time",[1]; [7],3171 ± 12 s
same,Eosinophiles,[1]; [7],3.8 ± 1.3%
same,Erythrocytes,[1]; [7],6.4 ± 0.2 mln/mm^3
same,Haematocrite,[1]; [7],49.4 ± 1.9%
same,Hemoglobin,[1]; [7],12.3 ± 0.3 mmol/L
same,Leukocyte,[1]; [7],20.1 ± 1.7 thousand/mm^3
same,REE,[1]; [7],1.7 ± 0.3 mm/h
same,Reticulocytes,[1]; [7],3.4 ± 0.1%
same,Stab neutrophil,[1]; [7],1.6 ± 0.2%
same,Thrombocytes,[1]; [7],628 ± 23
same,rise of pHi,[2]; 2.0 mkg/ml,0.10 unit pHi
same,rise of pHi,[2]; 20.0 mkg/ml,0.07 unit pHi
same,increase of pHi,[2]; [8],do not initiate a change of pH
same,increase of pHi,[2]; [9],0.1 unit pH
same,increase of pHi,[2]; [10],0.12 unit pH
same,increase of pHi,[2]; [11],do not initiate a change of pH
same,increase of pHi,[2]; [12],no effect was found
same,increase of pHi,[2]; [13],no effect was found
same,increase of pHi,[2]; [14],0.08 unit pHi
same,increase of pHi,[2]; [15],0.08 unit pHi
same,increase of pHi,[2]; [16],no effect was found
same,increase of pHi,[2]; [17],no effect was found
"Nc1ncc2c(=O)[nH][nH]c(=O)c2n1 [Compound 36, 2-amino-pyrimido[4,5-d]-6H-pyridazine-5,8-dione]",rise of pHi,[2]; 2.0 mkg/ml,0.10 unit pHi
same,rise of pHi,[2]; 20.0 mkg/ml,0.07 unit pHi
same,increase of pHi,[2]; [8],do not initiate a change of pH
same,increase of pHi,[2]; [9],0.1 unit pH
same,increase of pHi,[2]; [10],0.12 unit pH
same,increase of pHi,[2]; [11],do not initiate a change of pH
same,increase of pHi,[2]; [12],no effect was found
same,increase of pHi,[2]; [13],no effect was found
same,increase of pHi,[2]; [14],0.08 unit pHi
same,increase of pHi,[2]; [15],0.08 unit pHi
same,increase of pHi,[2]; [16],no effect was found
same,increase of pHi,[2]; [17],no effect was found
"O=c1[nH][nH]c(=O)c2c(Br)ncnc12.[K] [Compound 37, potassium salt of 4-bromine-pyrimido[4,5-D]-6H-pyridazine-5,8-dione]",Bilirubin (index of urine),[3]; 50 mg/kg,<5 Mkmol/l
same,Glucose (index of urine),[3]; 50 mg/kg,<5 mmol/L
same,Ketone bodies (index of urine),[3]; 50 mg/kg,<1 mmol/L
same,Potassium (index of urine),[3]; 50 mg/kg,6.12 ± 1.4 g/L
same,Protein (index of urine),[3]; 50 mg/kg,0.70 ± 0.19 g/L
same,Sodium (index of urine),[3]; 50 mg/kg,1.4 ± 0.2 g/L
same,Urea (index of urine),[3]; 50 mg/kg,427 ± 137 mmol/L
same,Urobilinogen (index of urine),[3]; 50 mg/kg,<15 Mkmol/l
same,pH (index of urine),[3]; 50 mg/kg,6.4 ± 0.4
same,Bilirubin (index of urine),[3]; 500 mg/kg,<5 Mkmol/l
same,Glucose (index of urine),[3]; 500 mg/kg,<5 mmol/L
same,Ketone bodies (index of urine),[3]; 500 mg/kg,<1 mmol/L
same,Potassium (index of urine),[3]; 500 mg/kg,6.44 ± 1.3 g/L
same,Protein (index of urine),[3]; 500 mg/kg,0.72 ± 0.14 g/L
same,Sodium (index of urine),[3]; 500 mg/kg,0.88 ± 0.4 g/L
same,Urea (index of urine),[3]; 500 mg/kg,489 ± 152 mmol/L
same,Urobilinogen (index of urine),[3]; 500 mg/kg,<15 Mkmol/l
same,pH (index of urine),[3]; 500 mg/kg,6.2 ± 0.3
